# In PubChem BioAssay (NCI):
#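 Briefly, cells in 96-well plates were exposed to five compound concentrations for 48 h, and endpoints were estimated by linear interpolation. GI50 = concentration required for 50% inhibition of growth. TGI marks complete inhibition of growth.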
# Experiments:
# Assay in all cases: NCI tumour cell line growth inhibition, 48 h
# MALME-3M melanoma = test system: MALME-3M melanoma
# SW-620 colon = test system: SW-620 colon
# NCI-H226 lung = test system: NCI-H226 lung
# UO-31 renal = test system: UO-31 renal
# NCI/ADR-RES ovarian = test system: NCI/ADR-RES ovarian
# SK-MEL-2 melanoma = test system: SK-MEL-2 melanoma
# MCF7 breast = test system: MCF7 breast
# T-47D breast = test system: T-47D breast
# 786-0 renal = test system: 786-0 renal
# HCT-15 colon = test system: HCT-15 colon
Compound,GI50 (MALME-3M melanoma),TGI (MALME-3M melanoma),GI50 (SW-620 colon),TGI (SW-620 colon),GI50 (NCI-H226 lung),TGI (NCI-H226 lung),GI50 (UO-31 renal),TGI (UO-31 renal),GI50 (NCI/ADR-RES ovarian),TGI (NCI/ADR-RES ovarian),GI50 (SK-MEL-2 melanoma),TGI (SK-MEL-2 melanoma),GI50 (MCF7 breast),TGI (MCF7 breast),GI50 (T-47D breast),TGI (T-47D breast),GI50 (786-0 renal),TGI (786-0 renal),GI50 (HCT-15 colon),TGI (HCT-15 colon)
CC1=CC[C@@H]2C(C)(C)[C@@H](O)CC[C@@]2(C)[C@@H]1COc1ccc2ccc(=O)oc2c1,8.04 µM,22.4 µM,9.94 µM,27.2 µM,4.28 µM,19.8 µM,2.99 µM,13.1 µM,3.22 µM,12.7 µM,5.49 µM,21.9 µM,7.3 µM,27 µM,2.27 µM,7.14 µM,13 µM,28 µM,3.6 µM,15.8 µM
O=C(/C=C/c1ccc([N+](=O)[O-])o1)NNC(=O)c1cc2ccccc2cc1O,1.34 µM,4.91 µM,2.03 µM,> 89 µM,3.51 µM,34.1 µM,1.2 µM,3.78 µM,1.48 µM,10.6 µM,1.44 µM,3.97 µM,0.824 µM,> 100 µM,1.51 µM,5.77 µM,1.54 µM,3.47 µM,0.714 µM,2.91 µM
Cc1cc(O)cc(C)c1/C=C/c1cncc(C(=O)N(C)C)c1,> 25 µM,> 25 µM,> 25 µM,> 25 µM,> 25 µM,> 25 µM,> 25 µM,> 25 µM,> 25 µM,> 25 µM,> 25 µM,> 25 µM,> 25 µM,> 25 µM,> 25 µM,> 25 µM,> 25 µM,> 25 µM,> 25 µM,> 25 µM
c1cc(-c2sc(-c3ccncc3)c(-c3ccncc3)c2-c2ccncc2)ccn1,,32.5 µM,,59.5 µM,,30.4 µM,,30 µM,,82 µM,,48.1 µM,,52 µM,,> 100 µM,,33 µM,,56.7 µM
O=C1NC(=O)C(c2ccccc2Cl)=C1Nc1cccc(O)c1,> 25 µM,> 25 µM,1.47 µM,> 25 µM,6.19 µM,> 25 µM,7.24 µM,> 25 µM,3.2 µM,> 25 µM,1.99 µM,> 25 µM,3.99 µM,> 20.7 µM,> 10.4 µM,> 25 µM,13.8 µM,> 25 µM,2.47 µM,> 25 µM
Cc1ccc(S(=O)(=O)NCCN2c3nc4ccccc4cc3Sc3cc4ccccc4nc32)cc1,23.2 µM,> 100 µM,> 100 µM,> 100 µM,64.2 µM,> 100 µM,> 100 µM,> 100 µM,> 25.1 µM,> 100 µM,> 37.4 µM,> 80.2 µM,> 100 µM,> 100 µM,4.54 µM,> 100 µM,1.67 µM,> 45.9 µM,> 100 µM,> 100 µM
